Data taken from patent US12161636B2, “Method of increasing lifespan in mammals” (priority 2023, dated 2024).
Several values for one entry are separate records, joined by “and”; a condition that tells them apart may be missing. Equal entries are not always repeated. Entries after “also recorded” stand apart in the source; their conditions may differ.

Tests used:
[1] = system: Beagle dogs; experiment: Pioglitazone started 2 weeks before HFD to prevent metabolic dysfunction; OGTT and HIEG clamp (Example 5); format: in vivo, dog
Source text: The purpose of this study was to assess the impact of pioglitazone on HFD-induced insulin resistance, hyperinsulinemia and fatty acid regulation in beagle dogs. We hypothesized that administration of pioglitazone to HFD-fed, metabolically dysfunctional dogs would (1) upregulate adiponectin levels (2) protect whole body insulin sensitivity as measured by an oral glucose tolerance test (OGTT) and hyperinsulinemic euglycemic clamp (HIEG) and (3) prevent increased deleterious fatty acid levels in the face of a HFD.
Study Design: Twenty four animals (between 1 and 2 years old) were acclimated for at least 2 weeks and surgically implanted with a femoral artery catheter under anesthesia. 2 baseline tests were performed before any treatment: an OGTT and a HIEG clamp.
The dogs were then randomly assigned to one of 3 groups: a placebo group (n=8) that received an empty capsule daily, a group that received 1 mg/kg pioglitazone in the form of a 15 mg pill (Dose 1, n=8), a group that received 2 mg/kg pioglitazone in the form of […] (Dose 2, n=8). Pioglitazone pills (Actos, Teva Pharmaceuticals, NJ) were given daily immediately before feeding and flushed with 5 mL of water.
Two weeks after the treatment started, all the animals were put on a HFD (Research Diet 5SQ1, Test Diet from Purina). On Day 46 and 56 after the start of the pioglitazone treatment, the animals were given an OGTT and a HIEG clamp respectively to compare to their baseline metabolic response. On day 46 and 56, placebo and pioglitazone were given one hour before the gavage and one hour before the start of the somatostatin infusion. The same amount of glucose as the initial OGTT study was given and the same rate of insulin and hormone was given during the clamp despite the gain weight of the animal, because we know that the animals mainly gain fat, a tissue that is unresponsive to the level of insulin.
Additionally, every 2 weeks, blood was harvested from each animal for multiple chemical measurements (Adiponectin, Superchem panel (performed by Antech Diagnostics)) before pioglitazone administration and feeding. Pioglitazone was also measured every 2 weeks in the serum, harvested 1 hour after pill administration and feeding.

[2] = system: Beagle dogs
Experimental: This 17-week HFD design, metabolic reversal study was conducted on 4 groups of 12 Beagle dogs each. All dogs included in the study were males, aged 3-7 years, weighing 12.05-22.95 kg. After 63 days (9 weeks) of normal diet or HFD-feeding, Placebo was administered daily by mouth to Groups 1 and 2 while pioglitazone was administered daily by mouth to Groups 3 and 4.
Animals were fed their daily food ration (g) as a split ration. Each feeding (AM or PM) consisted of approximately half the animal's daily food ration and was offered approximately 4 hours apart. Dogs were given approximately 2 hours to consume each ration and any remaining food was weighed back for each feeding.
All dogs were fed ad libitum “normal diet” (ND) consisting of 55% fat for all baseline measurements prior to study start. Prior to the study start, dogs were randomly assigned to either ND or HFD consisting of 74% fat, on which they remained for approximately 9 weeks. After 9 weeks, HFD-fed animals were further randomized to treatment groups prior to dosing based on fasting insulin levels as the primary factor and total body weight as the secondary factor. Dogs in the ND group were continued on ND through the conclusion of the study. Blood collections for Chemistry, Haematology, Triglycerides, Cholesterol, Metabolomics and Lipidomics, efficacy Biomarkers (Adiponectin, Fasting Insulin, and Leptin), pioglitazone pharmacokinetics, Cytokines (IL-6 and TNFa) and Non-esterified fatty acids (NEFA) were performed throughout the study to assess the diet and drug-related effects on markers of safety and metabolic function. Baseline (Day −56) and Pre-Treatment (Day 0) readings of each parameter were compared to Treatment (Day 57) readings.
OGTTs were performed during the Pre-Treatment (Day −14) and Treatment (Day 42) phases to assess glucose and insulin kinetics and insulin sensitivity. OGTTs were carried out as previously described by Coate et al., 2010. Briefly, dogs were fasting overnight prior to conducting the procedure. Blood was sampled and serum and plasma separated at −20 and 0 minutes pre-glucose bolus to establish fasting glucose and insulin values. At 0 minutes (t=0), a glucose bolus (0.9 g/kg, p.o.) was delivered. Blood was collected at 5, 10, 20, 30, 40, 50, 60, 70, 80, 90, 120, 180 and 240 minutes post-glucose bolus. Serum was then analyzed for glucose and plasma was analyzed for insulin levels at each time point.
Dogs were fasted for a minimum of 12 hours prior to the first blood draw of each sampling day. D2O and ^2H2^18O were prepared with autoclaved glassware and utensils, weighed out separately, and drawn into separate syringes. Body weights were taken the day of sampling and prepared D2O and ^2H2^18O were drawn into separate syringes per animal and weighed to the third decimal place prior to administration. Two milliliters (mL) of blood was collected prior to administration of 50 mg/kg of 99% D2O and 150 mg/kg of 97% ^2H2^18O via oral syringe. Blood samples were then collected at 2 h, 24 h, 72 h, 120 h and 168 h after initial D2O+^2H2^18O administration. Following collection, blood was plasma separated in K2EDTA tubes and were stored at −80° C. until analysis.
Individual and summary statistics, arithmetic means, percentage change and within and between group comparisons were done.
Subjects were administered Pioglitazone treatment, and fatty acids analysis was performed from blood samples of subjects. Fatty acids were detected and analyzed by species and quantified. Additionally, the effects of Pioglitazone on each different species of fatty acids were analyzed, as shown in FIG. 6B (Palmitic Acid), FIG. 6C (Linoleic Acid), and FIG. 6D (Oleic Acid).

[3] = system: dogs; settings: cited from earlier work
[4] = system: dogs; settings: 12 weeks; oral 30, 60, 150 mg/kg/day; cited from earlier work
[5] = system: dogs; settings: dog, in vivo, cited from earlier work
[6] = system: client-owned dogs; experiment: Randomized, masked, placebo-controlled field pilot study on aging biomarkers (Example 6); format: in vivo, dog
Source text: The effects of Pioglitazone aging biomarkers in client-owned dogs can be determined. Approximately 60 dogs are enrolled and randomized into two groups at a 3:1 ratio of treatment to control. Dogs can be screened on visit 1, which is 7 days before the study, and complete screening on visit 2, Day 0 of the study. The treatment can be randomized with dosing beginning on Day 0. The study has participant dogs enrolled for approximately 3 months, with evaluation visits about every 30 days for biomarker measurements and safety evaluations. The HRQL, CFI, insulin, and FFA blood levels are measured.
Fasting insulin. Dogs should be fasted for 12 hours before blood draw for fasting insulin. If the dog is not fasted before the blood collection, the Protocol Deviation: Subject Level eCRF must be completed.
The study will be a multi-site, field pilot study. The design is a randomized, masked, placebo-controlled study in client-owned dogs. The study will contain two treatment groups randomized at a 3:1 ratio in Table 10 below.
The study will enroll an estimated 60 dogs across all study sites. Approximately 45 dogs will be treated with IVP, and approximately 15 dogs will be treated with CP. Additional dogs may be enrolled if initial attrition rates exceed the anticipated level. Likewise, fewer dogs may be enrolled if the study ends before full enrollment.
Drug Administration. IVP/CP will be administered by the Owner to the subject once daily starting at study visit 2 and for the duration of the study. The administration route for IVP and CP is by mouth (PO).

[7] = beagle dogs on HFD, both doses, Day 56, excluding 4 dogs with non-comparable insulins
[8] = beagle dogs on HFD, clamp experiments
[9] = HFD-fed Beagle dogs, 1 or 2 mg/kg/day by mouth
[10] = HFD-fed Beagle dogs, vs HFD-fed placebo group
[11] = subjects 001-SAR-007 and 003-BAK-018

CCc1ccc(CCOc2ccc(CC3SC(=O)NC3=O)cc2)nc1.Cl (stereo not shown) [pioglitazone]
insulin response during the OGTT ([1]; beagle dogs on HFD, 1 mg/kg and 2 mg/kg daily, Day 46): reduced compared to the placebo group | glucose metabolism ([1]; beagle dogs on HFD, OGTT): normalize glucose metabolism without increasing insulin secretion | GIR (glucose infusion rate), HIEG clamp [1, 7]: able to overcome the defect | Rd (rate of glucose disappearance), HIEG clamp [1, 7]: able to overcome the defect | fasting FFA levels [1, 8]: reduced | inhibition of lipolysis [1, 8]: improved | circulating adiponectin ([1]; beagle dogs, 1 mg/kg and 2 mg/kg daily, by Day 14, vs placebo group): significant increase; also recorded: larger and more sustained than in the placebo group | caloric intake ([2]; HFD-fed Beagle dogs): without any effects | food consumption ([2]; HFD-fed Beagle dogs): without any effects | leptin levels ([2]; HFD-fed Beagle dogs): without any effects | HFD-induced elevation of SFA [2, 9]: reversed HFD-induced elevation of SFA | palmitic acid [2, 9]: decreases in palmitic acid | levels of metabolically deleterious fatty acids (SFAs, palmitic acid, linoleic acid, oleic acid) ([2]; HFD-fed Beagle dogs, 1 or 2 mg/kg/day by mouth, GC-MS): dose dependently regulates | glucose excursion during glucose tolerance test ([2]; HFD-fed Beagle dogs, 1 or 2 mg/kg/day by mouth, OGTT Day 42): no impact | adiponectin ([2]; HFD-fed Beagle dogs, 1 or 2 mg/kg/day by mouth, biomarker of target engagement): significantly upregulates | fasting glucose measurements ([2]; HFD-fed Beagle dogs, pioglitazone 1 or 2 mg/kg/day by mouth after 9 weeks HFD): no impact | size of adipocytes in the viscera (histological examination) ([2]; HFD-fed Beagle dogs, visceral and subcutaneous adipose tissue): decreased the size of adipocytes in the viscera | body composition: fat mass [2, 10]: increases in fat mass | circulating cholesterol [2, 10]: significantly reduced | circulating triglycerides [2, 10]: significantly reduced | fatty acid profiles [2, 10]: normalized detrimental fatty acid profiles | tolerability of administration ([2]; dog, in vivo): tolerated Placebo/pioglitazone administration well | nontoxic dose ([3]; 26 weeks, oral 0, 1, 3, 10 mg/kg/day): be 3 mg/kg/day. | hydropericardium ([3]; dog, in vivo, 10 mg/kg): hydroperi- | leukocytes ([3]; dog, in vivo, 10 mg/kg): increase in platelet and leukocytes | platelet ([3]; dog, in vivo, 10 mg/kg): increase in platelet and leukocytes | frequency of clinical signs [4]: The frequency appeared dose-dependent. | serum albumin ([5]; 10 mg/kg/day): Decrease in serum albumin and protein | serum protein ([5]; 10 mg/kg/day): Decrease in serum albumin and protein | hematocrit ([5]; 10 mg/kg): Reduction in hematocrit in both sexes | TBili ([6]; Subject 001-SAR-007, less than one month after starting, screening 0.5): 0.2 mg/dL | insulin ([6]; Subject 001-SAR-007, less than one month after starting, screening 76.8, reference range 5.2-41.5): 16.2 uIU/mL | ALP ([6]; Subject 001-SAR-007, less than one month after starting, screening 177, reference range 5-160): 88 U/L | AST ([6]; Subject 001-SAR-007, less than one month after starting, screening 182, reference range 16-55): 22 U/L | ALT ([6]; Subject 001-SAR-007, less than one month after starting, screening 469, reference range 18-121): 48 U/L | ALP ([6]; Subject 003-BAK-016, screening 241 U/L, reference range 5-160 U/L): remained elevated | insulin ([6]; Subject 003-BAK-016, subsequent visits before visit 6, screening 96.6, reference range 5.2-41.5): 62.2 uIU/mL and 52.9 uIU/mL | insulin ([6]; Subject 003-BAK-016, visit 6, 90 days later, screening 96.6): 42.3 uIU/mL | insulin ([6]; Subject 003-BAK-018, visit 4 (approximately day 30), screening 66.3, reference range 5.2-41.5): 15.3 uIU/mL | ALP ([6]; Subject 003-BAK-018, visit 4 (approximately day 30), screening 1603, reference range 5-160): 774 U/L | liver enzymes ([6]; all 3 dogs with elevated baseline insulin): reduction in liver enzymes | average reduction in insulin levels ([6]; client-owned dogs, baseline to day 90, not statistically significant (p=0.538)): 2.35 uIU/mL | average reductions in insulin levels compared with control group ([6]; client-owned dogs, p=0.171): trending lower | gross lipemia in the blood samples [6, 11]: eliminating gross lipemia | triglycerides [6, 11]: reduction or normalization | insulin levels in dogs with elevated baseline insulin levels ([6]; three pioglitazone-treated dogs): notable effect
